Measurements taken from patent US4883801A, “Xanthine derivative pest control agents” (priority 1986, dated 1989).

Experiments:
[1] = test system: cockroach brain adenylate cyclase; details: in vitro; cited from earlier work
[2] = test system: Manduca sexta (tobacco hornworm) larvae; test: Antifeeding test: tomato leaves sprayed with compound, tobacco hornworm larvae; assay type: in vivo; details: for Vmax (percent inhibition of feeding at the highest dose used): highest dose usually a 3% spray solution; for EC50 (spray concentration required to cause 50% inhibition of feeding): spray on tomato leaves, calculated from dose-response curves, Manduca sexta 6 per leaf

SMILES: CNC(=O)O/N=C/C(C)(C)SC [Aldicarb]
- direct effect on cockroach brain adenylate cyclase (in words) [1]: essentially no direct effects

SMILES: C=CCC1=C(C)C(OC(=O)C2C(C=C(C)C)C2(C)C)CC1=O (stereo not drawn) [Allethrin]
- direct effect on cockroach brain adenylate cyclase (in words) [1]: essentially no direct effects

SMILES: Cc1cc(OC(=O)N(C)C)nn1C(=O)N(C)C [Dimetilan]
- direct effect on cockroach brain adenylate cyclase (in words) [1]: essentially no direct effects

SMILES: CCn1c(=O)c2[nH]cnc2n(CC)c1=O [Example 16, 1,3-diethyl-xanthine]
- Vmax (percent inhibition of feeding at the highest dose used) [2]: 98%
- EC50 (spray concentration required to cause 50% inhibition of feeding) [2]: 0.33 % (gm/100 ml)

SMILES: CCCn1c(=O)c2[nH]cnc2n(CCC)c1=O [Example 17, 1,3-dipropyl-xanthine]
- Vmax (percent inhibition of feeding at the highest dose used) [2]: 95%
- EC50 (spray concentration required to cause 50% inhibition of feeding) [2]: 0.035 % (gm/100 ml)

SMILES: C=CCn1c(=O)c2[nH]cnc2n(CC=C)c1=O [Example 18, 1,3-diallyl-xanthine]
- Vmax (percent inhibition of feeding at the highest dose used) [2]: 99%
- EC50 (spray concentration required to cause 50% inhibition of feeding) [2]: 0.35 % (gm/100 ml)

SMILES: O=c1c2[nH]cnc2n(Cc2ccccc2)c(=O)n1Cc1ccccc1 [Example 19, 1,3-dibenzyl-xanthine]
- Vmax (percent inhibition of feeding at the highest dose used) [2]: 70%
- EC50 (spray concentration required to cause 50% inhibition of feeding) [2]: 0.45 % (gm/100 ml)

SMILES: CC(C)CCn1c(=O)c2[nH]cnc2n(CC(C)C)c1=O [Example 21, 1-isoamyl,3-isobutyl-xanthine]
- Vmax (percent inhibition of feeding at the highest dose used) [2]: > 52%
- EC50 (spray concentration required to cause 50% inhibition of feeding) [2]: 0.2 % (gm/100 ml)

SMILES: CCn1c(=O)n(CCc2ccccc2)c(=O)c2[nH]cnc21 [Example 22, 1-phenethyl,3-ethyl-xanthine]
- Vmax (percent inhibition of feeding at the highest dose used) [2]: 96%
- EC50 (spray concentration required to cause 50% inhibition of feeding) [2]: 0.6 % (gm/100 ml)

SMILES: Cn1c(=O)c2c(ncn2CCCl)n(C)c1=O [Example 24, 1,3-dimethyl,7-(2-chlorethyl)-xanthine]
- Vmax (percent inhibition of feeding at the highest dose used) [2]: 95%
- EC50 (spray concentration required to cause 50% inhibition of feeding) [2]: 0.3 % (gm/100 ml)

SMILES: CC(O)Cn1cnc2c1c(=O)n(C)c(=O)n2C (stereo not drawn) [Example 25, 1,3-dimethyl,7-(beta-hydroxypropyl-xanthine)]
- Vmax (percent inhibition of feeding at the highest dose used) [2]: 95%
- EC50 (spray concentration required to cause 50% inhibition of feeding) [2]: 1.5 % (gm/100 ml)

SMILES: COc1nc2c(c(=O)n(C)c(=O)n2C)n1C [Example 26, 1,3,7-trimethyl,8-methoxy-xanthine]
- Vmax (percent inhibition of feeding at the highest dose used) [2]: 86%
- EC50 (spray concentration required to cause 50% inhibition of feeding) [2]: 0.5 % (gm/100 ml)

SMILES: Cn1cnc2c1c(=O)[nH]c(=O)n2C [Example 27, 3,7-dimethyl-xanthine (theobromine), reference compound]
- Vmax (percent inhibition of feeding at the highest dose used) [2]: 87%
- EC50 (spray concentration required to cause 50% inhibition of feeding) [2]: 1.0 % (gm/100 ml)

SMILES: CCCn1c(=O)c2c(ncn2C)n(CCC)c1=O [Example 28, 1,3-dipropyl,7-methyl-xanthine]
- Vmax (percent inhibition of feeding at the highest dose used) [2]: 84%
- EC50 (spray concentration required to cause 50% inhibition of feeding) [2]: 0.48 % (gm/100 ml)

SMILES: CCCn1c(=O)c2c(ncn2CCC)n(CCC)c1=O [Example 29, 1,3,7-tripropyl-xanthine]
- Vmax (percent inhibition of feeding at the highest dose used) [2]: 95%
- EC50 (spray concentration required to cause 50% inhibition of feeding) [2]: 0.19 % (gm/100 ml)

SMILES: CCCn1c(=O)c2c(ncn2Cc2ccccc2)n(CCC)c1=O [Example 30, 1,3-dipropyl,7-benzyl-xanthine]
- Vmax (percent inhibition of feeding at the highest dose used) [2]: 96%
- EC50 (spray concentration required to cause 50% inhibition of feeding) [2]: 0.08 % (gm/100 ml)

SMILES: CCCCn1c(=O)c2[nH]cnc2n(CCCC)c1=O [Example 31, 1,3-dibutyl-xanthine]
- Vmax (percent inhibition of feeding at the highest dose used) [2]: 90%
- EC50 (spray concentration required to cause 50% inhibition of feeding) [2]: 0.044 % (gm/100 ml)

SMILES: O=c1[nH]c(=O)c2[nH]cnc2[nH]1 [Example 32, xanthine]
- Vmax (percent inhibition of feeding at the highest dose used) [2]: 0%
- EC50 (spray concentration required to cause 50% inhibition of feeding) [2]: > 3 % (gm/100 ml)

SMILES: Cn1c(=O)[nH]c2nc[nH]c2c1=O [Example 33, 1-methyl-xanthine]
- Vmax (percent inhibition of feeding at the highest dose used) [2]: 21%
- EC50 (spray concentration required to cause 50% inhibition of feeding) [2]: > 3 % (gm/100 ml)

SMILES: Cn1c(=O)[nH]c(=O)c2[nH]cnc21 [Example 34, 3-methyl-xanthine]
- Vmax (percent inhibition of feeding at the highest dose used) [2]: 8%
- EC50 (spray concentration required to cause 50% inhibition of feeding) [2]: > 3 % (gm/100 ml)

SMILES: Cn1cnc2[nH]c(=O)[nH]c(=O)c21 [Example 35, 7-methyl-xanthine]
- Vmax (percent inhibition of feeding at the highest dose used) [2]: 29%
- EC50 (spray concentration required to cause 50% inhibition of feeding) [2]: > 3 % (gm/100 ml)

SMILES: Cc1nc2[nH]c(=O)[nH]c(=O)c2[nH]1 [Example 36, 8-methyl-xanthine]
- Vmax (percent inhibition of feeding at the highest dose used) [2]: 35%
- EC50 (spray concentration required to cause 50% inhibition of feeding) [2]: > 3 % (gm/100 ml)

SMILES: Cn1c(=O)[nH]c2[nH]c(=O)n(C)c2c1=O [Example 39, 1,7-dimethyl-uric acid]
- Vmax (percent inhibition of feeding at the highest dose used) [2]: 30%
- EC50 (spray concentration required to cause 50% inhibition of feeding) [2]: > 3 % (gm/100 ml)

SMILES: Cn1c(=O)c2c([nH]c(=O)n2C)n(C)c1=O [Example 40, 1,3,7-trimethyl-uric acid]
- Vmax (percent inhibition of feeding at the highest dose used) [2]: 40%
- EC50 (spray concentration required to cause 50% inhibition of feeding) [2]: > 3 % (gm/100 ml)

SMILES: CC(=O)n1cnc2c1c(=O)n(C)c(=O)n2C [Example 41, 1,3-dimethyl-7-acetyl-xanthine]
- Vmax (percent inhibition of feeding at the highest dose used) [2]: 18%
- EC50 (spray concentration required to cause 50% inhibition of feeding) [2]: > 3 % (gm/100 ml)

SMILES: CCCn1c(=O)c2[nH]c(-c3ccccc3)nc2n(CCC)c1=O [Example 43, 1,3-dipropyl-8-phenyl-xanthine]
- Vmax (percent inhibition of feeding at the highest dose used) [2]: 0%
- EC50 (spray concentration required to cause 50% inhibition of feeding) [2]: > 3 % (gm/100 ml)

SMILES: Cn1c(=O)c2c(nc(Cl)n2C)n(C)c1=O [Example 44, 1,3,7-trimethyl-8-chloro-xanthine]
- Vmax (percent inhibition of feeding at the highest dose used) [2]: 40%
- EC50 (spray concentration required to cause 50% inhibition of feeding) [2]: > 3 % (gm/100 ml)

SMILES: Cn1c(=O)c2ncn(C)c2n(C)c1=O [Example 45, 1,3,9-trimethyl-xanthine]
- pesticidal and pestistatic activity class (active / inactive / weakly active) ([2]; Table 1 grouping): weakly active
- Vmax (percent inhibition of feeding at the highest dose used) [2]: 50%
- EC50 (spray concentration required to cause 50% inhibition of feeding) [2]: > 3 % (gm/100 ml)

SMILES: C=C(C)[C@H]1Cc2c(ccc3c2O[C@@H]2COc4cc(OC)c(OC)cc4[C@@H]2C3=O)O1 [Rotenone]
- direct effect on cockroach brain adenylate cyclase (in words) [1]: essentially no direct effects

SMILES: CCOP(=O)(OCC)OP(=O)(OCC)OCC [TEPP]
- direct effect on cockroach brain adenylate cyclase (in words) [1]: essentially no direct effects

SMILES: COP(=O)(OC)Oc1ccc([N+](=O)[O-])cc1 [methylparaoxon]
- direct effect on cockroach brain adenylate cyclase (in words) [1]: essentially no direct effects
